Source: US20110105577A1 (priority 2007, published 2011)

Legend:
[1] = tested on: Aspergillus flavus
[2] = tested on: Aspergillus parasiticus

N#Cc1c[nH]cc1-c1cccc2c1OC(F)(F)O2 [Fludioxonil]
Aflatoxin B1 [ppb] [1]: 1230 ppb | Aflatoxin B1 [ppb] [2]: 17390 ppb

OC(Cc1ccccc1Cl)(Cn1nc[nH]c1=S)C1(Cl)CC1 (centres unmarked) [Prothioconazole]
Aflatoxin B1 [ppb] [1]: 865 ppb | Aflatoxin B1 [ppb] [2]: 37785 ppb

CON=C(C(=O)OC)c1ccccc1CON=C(C)c1cccc(C(F)(F)F)c1 [Trifloxystrobin]
Aflatoxin B1 [ppb] [1]: 375 ppb | Aflatoxin B1 [ppb] [2]: 9775 ppb

CC(C)(C)C(O)(CCc1ccc(Cl)cc1)Cn1cncn1 (centres unmarked) [Tebuconazole]
Aflatoxin B1 [ppb] [1]: 2445 ppb | Aflatoxin B1 [ppb] [2]: 4545 ppb
